One may read the IC50 as the midpoint of a concentration-inhibition curve. Read a high IC50 as weaker potency.

Experiment [1] addresses T1, Carnitine O-palmitoyltransferase 2, mitochondrial (Rattus norvegicus, UniProt P18886).
T1 sequence (P18886 whole entry): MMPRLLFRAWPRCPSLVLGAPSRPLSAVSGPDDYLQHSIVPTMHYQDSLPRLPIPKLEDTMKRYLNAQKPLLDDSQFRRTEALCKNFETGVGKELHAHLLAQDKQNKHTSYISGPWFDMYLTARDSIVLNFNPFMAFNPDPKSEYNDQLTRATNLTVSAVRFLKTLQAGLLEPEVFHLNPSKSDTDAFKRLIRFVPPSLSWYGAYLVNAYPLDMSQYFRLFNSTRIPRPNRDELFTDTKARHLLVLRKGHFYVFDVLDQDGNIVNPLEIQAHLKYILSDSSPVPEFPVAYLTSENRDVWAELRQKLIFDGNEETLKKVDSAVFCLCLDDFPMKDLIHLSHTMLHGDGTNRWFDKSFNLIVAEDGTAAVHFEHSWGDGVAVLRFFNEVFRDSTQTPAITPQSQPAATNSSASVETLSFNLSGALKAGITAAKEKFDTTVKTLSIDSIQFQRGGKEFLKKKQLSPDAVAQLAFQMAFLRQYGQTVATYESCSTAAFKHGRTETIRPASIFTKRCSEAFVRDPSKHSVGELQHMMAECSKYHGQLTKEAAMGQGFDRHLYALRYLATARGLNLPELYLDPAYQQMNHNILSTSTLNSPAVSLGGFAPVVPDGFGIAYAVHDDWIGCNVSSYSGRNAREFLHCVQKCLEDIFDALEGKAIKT
As to the kind of experiment: (§1) SUPPLEMENTARY: Inhibition of Carnitine palmitoyltransferase 2.

Experiment [2] has as its target T2, Carnitine O-palmitoyltransferase 2, mitochondrial (Homo sapiens, UniProt P23786).
T2 sequence (P23786 whole entry): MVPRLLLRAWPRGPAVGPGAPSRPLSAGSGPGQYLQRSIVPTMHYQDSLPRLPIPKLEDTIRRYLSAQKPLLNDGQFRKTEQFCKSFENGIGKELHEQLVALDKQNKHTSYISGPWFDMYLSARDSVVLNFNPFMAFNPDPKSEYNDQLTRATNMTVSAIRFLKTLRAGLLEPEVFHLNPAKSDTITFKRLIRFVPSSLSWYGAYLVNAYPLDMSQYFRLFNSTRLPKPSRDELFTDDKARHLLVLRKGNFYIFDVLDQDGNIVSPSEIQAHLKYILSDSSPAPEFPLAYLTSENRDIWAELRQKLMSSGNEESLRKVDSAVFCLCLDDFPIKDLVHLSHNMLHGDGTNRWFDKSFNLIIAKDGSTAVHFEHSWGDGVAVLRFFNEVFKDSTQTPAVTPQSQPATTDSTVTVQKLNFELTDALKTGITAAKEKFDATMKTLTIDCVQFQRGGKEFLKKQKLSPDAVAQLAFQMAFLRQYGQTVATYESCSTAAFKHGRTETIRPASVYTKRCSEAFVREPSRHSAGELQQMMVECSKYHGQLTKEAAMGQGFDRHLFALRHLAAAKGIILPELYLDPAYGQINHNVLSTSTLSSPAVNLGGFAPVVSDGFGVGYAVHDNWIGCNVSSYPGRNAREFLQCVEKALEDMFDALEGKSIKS
The description is as §1.

Experiment [3] concerns the target T3, Carnitine O-palmitoyltransferase 1, liver isoform (Homo sapiens, UniProt P50416).
T3 sequence (P50416 whole entry): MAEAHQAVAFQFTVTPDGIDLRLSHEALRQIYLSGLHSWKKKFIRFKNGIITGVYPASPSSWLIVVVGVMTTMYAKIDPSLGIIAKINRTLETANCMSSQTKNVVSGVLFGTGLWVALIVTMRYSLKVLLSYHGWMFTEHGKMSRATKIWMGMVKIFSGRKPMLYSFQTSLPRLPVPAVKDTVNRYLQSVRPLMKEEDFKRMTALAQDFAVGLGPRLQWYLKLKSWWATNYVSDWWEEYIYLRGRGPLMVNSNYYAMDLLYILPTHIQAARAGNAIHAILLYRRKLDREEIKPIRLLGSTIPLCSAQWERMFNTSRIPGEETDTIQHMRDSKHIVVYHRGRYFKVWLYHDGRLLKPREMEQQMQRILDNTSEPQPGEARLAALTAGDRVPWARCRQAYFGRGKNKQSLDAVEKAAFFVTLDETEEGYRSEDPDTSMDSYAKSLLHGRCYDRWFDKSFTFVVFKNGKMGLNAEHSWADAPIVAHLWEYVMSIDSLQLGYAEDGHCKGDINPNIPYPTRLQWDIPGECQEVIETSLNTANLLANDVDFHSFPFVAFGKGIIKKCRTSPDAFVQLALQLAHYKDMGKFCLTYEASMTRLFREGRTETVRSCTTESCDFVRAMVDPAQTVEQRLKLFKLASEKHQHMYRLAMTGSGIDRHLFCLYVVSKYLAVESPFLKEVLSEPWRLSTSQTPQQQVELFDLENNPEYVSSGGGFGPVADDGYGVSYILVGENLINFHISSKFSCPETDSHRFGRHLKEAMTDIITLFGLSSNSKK
Kind of experiment: (§2) SUPPLEMENTARY: Inhibition of Carnitine palmitoyltransferase 1, liver isoform.

Experiment [4] concerns the target T4, Carnitine O-palmitoyltransferase 1, liver isoform (Rattus norvegicus, UniProt P32198).
T4 sequence (P32198 whole entry): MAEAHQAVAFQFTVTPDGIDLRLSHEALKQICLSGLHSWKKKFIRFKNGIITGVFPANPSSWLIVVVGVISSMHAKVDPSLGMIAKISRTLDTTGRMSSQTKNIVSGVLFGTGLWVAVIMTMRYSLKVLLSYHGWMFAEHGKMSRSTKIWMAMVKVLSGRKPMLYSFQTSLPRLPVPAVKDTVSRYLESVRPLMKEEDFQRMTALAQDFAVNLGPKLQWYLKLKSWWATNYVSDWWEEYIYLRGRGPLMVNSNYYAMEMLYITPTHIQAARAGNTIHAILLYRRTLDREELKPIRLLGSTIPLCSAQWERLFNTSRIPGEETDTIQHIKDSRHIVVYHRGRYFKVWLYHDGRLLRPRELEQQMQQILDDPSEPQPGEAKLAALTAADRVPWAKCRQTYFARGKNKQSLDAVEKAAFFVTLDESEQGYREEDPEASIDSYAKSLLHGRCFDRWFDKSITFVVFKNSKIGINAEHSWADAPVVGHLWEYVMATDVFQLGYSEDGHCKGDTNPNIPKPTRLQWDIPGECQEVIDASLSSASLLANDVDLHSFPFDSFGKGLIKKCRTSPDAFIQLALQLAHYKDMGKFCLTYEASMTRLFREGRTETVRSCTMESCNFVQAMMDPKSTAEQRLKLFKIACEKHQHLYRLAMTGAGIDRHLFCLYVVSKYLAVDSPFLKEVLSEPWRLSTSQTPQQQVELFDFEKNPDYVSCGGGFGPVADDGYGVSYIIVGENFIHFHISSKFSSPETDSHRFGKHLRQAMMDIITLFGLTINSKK
Described as §2.

Experiment [5] concerns the target T5, Carnitine O-palmitoyltransferase 1, muscle isoform (Homo sapiens, UniProt Q92523).
T5 sequence (Q92523 whole entry): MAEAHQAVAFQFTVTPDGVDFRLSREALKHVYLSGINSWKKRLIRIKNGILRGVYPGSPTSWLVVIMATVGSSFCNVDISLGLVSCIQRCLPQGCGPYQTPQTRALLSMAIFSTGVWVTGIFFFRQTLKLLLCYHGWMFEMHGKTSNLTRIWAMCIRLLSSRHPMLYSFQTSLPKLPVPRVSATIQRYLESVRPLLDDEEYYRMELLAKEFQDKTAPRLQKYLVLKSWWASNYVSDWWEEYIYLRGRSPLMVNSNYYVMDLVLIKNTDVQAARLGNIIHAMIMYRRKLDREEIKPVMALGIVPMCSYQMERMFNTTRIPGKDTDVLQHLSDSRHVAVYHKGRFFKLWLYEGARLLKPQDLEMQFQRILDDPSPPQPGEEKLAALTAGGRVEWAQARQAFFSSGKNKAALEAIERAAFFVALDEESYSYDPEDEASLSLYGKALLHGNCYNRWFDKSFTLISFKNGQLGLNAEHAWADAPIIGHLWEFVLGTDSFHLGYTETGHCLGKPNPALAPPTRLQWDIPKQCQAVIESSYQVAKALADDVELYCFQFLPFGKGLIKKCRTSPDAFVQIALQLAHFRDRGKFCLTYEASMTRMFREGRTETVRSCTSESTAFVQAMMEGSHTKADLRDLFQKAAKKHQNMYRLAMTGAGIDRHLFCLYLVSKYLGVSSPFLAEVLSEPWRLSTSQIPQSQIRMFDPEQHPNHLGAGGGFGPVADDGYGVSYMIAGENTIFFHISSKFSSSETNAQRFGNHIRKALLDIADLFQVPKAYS
Kind of experiment: SUPPLEMENTARY: Inhibition of Carnitine palmitoyltransferase 1, muscle isoform. Also on record: species or system Muscle tissue.

In the case of `COc1ccc(Cl)cc1S(=O)(=O)N1C[C@H](C(=O)O)Oc2ccc(C(=O)Nc3ccccc3)cc21`, the IC50 in experiment [1] was more than 100 µM; in experiment [2], more than 100 µM; in experiment [3], 0.0466 µM; in experiment [4] it was 0.0153 µM; in experiment [5] it was 31.9 µM.

On to `COc1ccc(Cl)cc1S(=O)(=O)c1nn(C)c2ccc(C(=O)Nc3ccc(C(=O)O)c(Cl)c3)cc12`, for which the IC50 was 35.1 µM in experiment [1]; 21.3 µM in experiment [2]; 0.0416 µM in experiment [3]; 0.0158 µM in experiment [4]; 1.68 µM in experiment [5].

Consider `O=C(COc1ccccc1)NS(=O)(=O)Cc1ccc(-c2nc([C@H]3CCCCN3C(=O)COc3ccccc3)cs2)cc1`, for which the IC50 in experiment [1] was found to be 6.58 µM; in experiment [2], 2.38 µM; in experiment [3], 0.214 µM; in experiment [4], 0.361 µM; in experiment [5] it was 2.29 µM.

Turning to `O=C(COc1ccccc1)OCc1cc(-c2nc([C@H]3CCCCN3C(=O)COc3ccccc3)cs2)ccn1`, the half-inhibitory concentration (IC50) in experiment [1] was more than 100 µM; in experiment [2], 44.8 µM; in experiment [3] it was 0.503 µM; in experiment [4] it was 1.05 µM; in experiment [5], 17.8 µM.

As to `COC(=O)c1cccc(-c2nc([C@H]3CCCCN3C(=O)COc3ccccc3)sc2C)c1`, the IC50 was more than 100 µM in experiment [1]; 59.8 µM in experiment [2]; 0.305 µM in experiment [3]; 0.632 µM in experiment [4]; more than 100 µM in experiment [5].

As for `COc1ccc(Cl)cc1S(=O)(=O)N(C)c1cc(C(=O)Nc2ccc(CC(=O)O)cc2)cc2c1OCO2`, the IC50 is more than 100 µM in experiment [1]; more than 100 µM in experiment [2]; 0.391 µM in experiment [3]; 0.362 µM in experiment [4]; 0.857 µM in experiment [5].

Take `CCN(c1cc(C(=O)Nc2ccc(CC(=O)O)cc2)cc2c1OCO2)S(=O)(=O)c1cc(Cl)ccc1OC`: the IC50 in experiment [1] is more than 100 µM; in experiment [2] it was 37.7 µM; in experiment [3], 0.285 µM; in experiment [4], 0.35 µM; in experiment [5], 2.8 µM.

`CCN(c1cc(C(=O)Nc2ccn(CC(=O)O)n2)cc2c1OCO2)S(=O)(=O)c1cc(Cl)ccc1OC`: the IC50 is more than 100 µM in experiment [1]; more than 100 µM in experiment [2]; 0.339 µM in experiment [3]; 0.686 µM in experiment [4]; 1.37 µM in experiment [5].

As to `CCCN(c1cc(C(=O)Nc2ccn(CC(=O)O)n2)cc2c1OCO2)S(=O)(=O)c1cc(Cl)ccc1OC`, the IC50 is more than 100 µM in experiment [1]; more than 100 µM in experiment [2]; 0.324 µM in experiment [3]; 0.252 µM in experiment [4]; 1.76 µM in experiment [5].

As to `COc1ccc(Cl)cc1S(=O)(=O)N(c1cc(C(=O)Nc2nc(CC(=O)O)cs2)cc2c1OCO2)C(C)C`, the IC50 in experiment [1] is more than 100 µM; in experiment [2], 13.8 µM; in experiment [3], 0.224 µM; in experiment [4] it was 0.188 µM; in experiment [5], 2.97 µM.

As for `COc1ccc(Cl)cc1S(=O)(=O)N(c1cc(C(=O)Nc2ccc(CC(=O)O)cc2)cc2c1OCO2)C(C)C`, the concentration for half-maximal inhibition (IC50) is more than 100 µM in experiment [1]; 52.2 µM in experiment [2]; 0.89 µM in experiment [3]; 1.09 µM in experiment [4]; 0.598 µM in experiment [5].

Take `COc1ccc(Cl)cc1S(=O)(=O)N(c1cc(C(=O)Nc2ccn(CC(=O)O)n2)cc2c1OCO2)C(C)C`: the IC50 in experiment [1] is more than 100 µM; in experiment [2] it was more than 100 µM; in experiment [3], 1.07 µM; in experiment [4], 6.02 µM; in experiment [5], 5.28 µM.

`COCCN(c1cc(C(=O)Nc2ccc(CC(=O)O)cc2)cc2c1OCO2)S(=O)(=O)c1cc(Cl)ccc1OC`: the IC50 in experiment [1] was more than 100 µM; in experiment [2], more than 100 µM; in experiment [3], 0.622 µM; in experiment [4], 0.453 µM; in experiment [5], 1.53 µM.

As for `COCCN(c1cc(C(=O)Nc2ncc(CC(=O)O)s2)cc2c1OCO2)S(=O)(=O)c1cc(Cl)ccc1OC`, the IC50 in experiment [1] was more than 100 µM; in experiment [2], more than 100 µM; in experiment [3], 0.315 µM; in experiment [4], 0.157 µM; in experiment [5], 0.914 µM.

Take `COCCN(c1cc(C(=O)Nc2ccn(CC(=O)O)n2)cc2c1OCO2)S(=O)(=O)c1cc(Cl)ccc1OC`: the IC50 in experiment [1] is more than 100 µM; in experiment [2], more than 100 µM; in experiment [3], 0.337 µM; in experiment [4], 0.792 µM; in experiment [5] it was 5.32 µM.

The values are drawn from ChEMBL document CHEMBL3431459, “Roche carnitine palmitoyltransferase modulator screening data (supplementary data associated with the publication CHEMBL2216752)”.
